Results on 34 compounds are retold here after patent US20250115569A1, “SULFONAMIDE COMPOUNDS FOR THE TREATMENT OF NEUROLOGICAL CONDITIONS” (LARIO THERAPEUTICS LIMITED, priority 2021, published 2025).

SMILES strings stand for the structures.

Sequence of Cav2.3 (Q15878 whole entry, looked up): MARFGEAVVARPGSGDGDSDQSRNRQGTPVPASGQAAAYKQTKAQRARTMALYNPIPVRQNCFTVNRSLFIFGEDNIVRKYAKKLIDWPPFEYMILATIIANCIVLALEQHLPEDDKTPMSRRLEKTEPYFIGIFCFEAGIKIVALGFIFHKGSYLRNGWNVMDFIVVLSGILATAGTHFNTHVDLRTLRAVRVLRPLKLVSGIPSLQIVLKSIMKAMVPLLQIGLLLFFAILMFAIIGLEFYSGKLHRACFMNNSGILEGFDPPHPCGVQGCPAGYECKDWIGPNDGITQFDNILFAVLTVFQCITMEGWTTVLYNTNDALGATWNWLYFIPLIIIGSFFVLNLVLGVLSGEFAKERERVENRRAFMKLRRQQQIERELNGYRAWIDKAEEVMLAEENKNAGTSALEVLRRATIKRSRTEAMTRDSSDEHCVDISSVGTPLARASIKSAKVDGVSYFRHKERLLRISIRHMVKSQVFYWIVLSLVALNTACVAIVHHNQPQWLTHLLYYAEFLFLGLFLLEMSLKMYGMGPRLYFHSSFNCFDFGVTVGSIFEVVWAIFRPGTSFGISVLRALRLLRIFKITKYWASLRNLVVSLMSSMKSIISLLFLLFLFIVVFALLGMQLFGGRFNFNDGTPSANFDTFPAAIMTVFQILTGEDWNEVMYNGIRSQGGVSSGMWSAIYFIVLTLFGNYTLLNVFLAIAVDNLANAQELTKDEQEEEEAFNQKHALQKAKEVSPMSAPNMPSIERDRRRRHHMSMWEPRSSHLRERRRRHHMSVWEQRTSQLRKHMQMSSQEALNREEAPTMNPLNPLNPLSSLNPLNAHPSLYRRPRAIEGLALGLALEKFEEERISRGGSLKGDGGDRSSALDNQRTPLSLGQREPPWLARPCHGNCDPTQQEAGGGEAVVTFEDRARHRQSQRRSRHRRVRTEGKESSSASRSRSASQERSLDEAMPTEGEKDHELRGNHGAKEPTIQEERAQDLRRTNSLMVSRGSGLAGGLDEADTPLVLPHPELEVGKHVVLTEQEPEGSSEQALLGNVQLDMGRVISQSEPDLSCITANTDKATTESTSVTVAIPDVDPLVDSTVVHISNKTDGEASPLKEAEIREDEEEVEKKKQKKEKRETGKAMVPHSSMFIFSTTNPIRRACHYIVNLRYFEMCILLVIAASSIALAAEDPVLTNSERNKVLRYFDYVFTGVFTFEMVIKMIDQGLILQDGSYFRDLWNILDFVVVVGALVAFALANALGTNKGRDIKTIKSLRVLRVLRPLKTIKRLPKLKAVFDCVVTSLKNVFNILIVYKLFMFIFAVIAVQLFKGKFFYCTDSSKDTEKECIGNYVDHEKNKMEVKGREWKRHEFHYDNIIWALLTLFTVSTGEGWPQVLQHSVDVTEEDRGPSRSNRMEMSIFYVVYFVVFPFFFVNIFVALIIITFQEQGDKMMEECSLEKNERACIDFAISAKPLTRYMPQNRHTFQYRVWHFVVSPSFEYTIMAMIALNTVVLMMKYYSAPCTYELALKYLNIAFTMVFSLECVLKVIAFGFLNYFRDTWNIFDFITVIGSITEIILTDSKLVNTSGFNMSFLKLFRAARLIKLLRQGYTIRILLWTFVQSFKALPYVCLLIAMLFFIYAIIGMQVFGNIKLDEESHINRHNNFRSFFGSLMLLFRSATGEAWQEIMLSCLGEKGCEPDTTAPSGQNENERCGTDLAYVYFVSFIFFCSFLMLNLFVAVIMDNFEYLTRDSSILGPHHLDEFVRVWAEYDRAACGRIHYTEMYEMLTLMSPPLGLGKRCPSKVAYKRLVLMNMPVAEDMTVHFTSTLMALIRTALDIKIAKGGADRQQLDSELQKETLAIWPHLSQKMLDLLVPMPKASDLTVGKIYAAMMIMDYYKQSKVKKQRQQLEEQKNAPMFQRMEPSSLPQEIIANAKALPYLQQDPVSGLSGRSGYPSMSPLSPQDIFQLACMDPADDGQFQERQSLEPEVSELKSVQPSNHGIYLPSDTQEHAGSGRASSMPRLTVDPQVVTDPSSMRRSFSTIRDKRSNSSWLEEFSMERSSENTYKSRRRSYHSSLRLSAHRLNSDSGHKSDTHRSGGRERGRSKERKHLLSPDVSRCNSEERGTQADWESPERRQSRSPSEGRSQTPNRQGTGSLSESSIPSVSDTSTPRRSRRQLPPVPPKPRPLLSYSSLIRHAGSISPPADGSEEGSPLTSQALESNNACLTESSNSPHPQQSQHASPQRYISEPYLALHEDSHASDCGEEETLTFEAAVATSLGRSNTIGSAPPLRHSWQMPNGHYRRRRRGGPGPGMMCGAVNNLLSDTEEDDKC

This test has as its target Cav2.3 (Homo sapiens, UniProt Q15878). Description: Human Cav2.3 channel calcium-influx assay. The class given is cell-based. The conditions noted are these: Fluo8 fluorescence, HEK-293 T-Rex/Kir2.1/Cav2.3e cells, without pluronic acid, read-out: Cav2.3 (pIC50) (converted). Put shortly:
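HEK-293 T-Rex/Kir2.1 cells with doxycycline (0.2 μg/mL)-inducible Cav2.3e plus Cavβ4-α2δ1, loaded with Fluo8 NW in 0 mM K+ Tyrode's. Compounds (8 points, top 30 μM, half-log, 0.3% final DMSO, n=4) preincubated 3 min at RT, then depolarized with 20 mM KCl/2 mM CaCl2 (final); fluorescence read 130 s.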
`CCN(C(c1ccc(F)cc1)C(F)(F)F)S(=O)(=O)c1cc(N2CCOCC2)cs1` (stereo not shown) [Example 92, N-ethyl-4-morpholino-N-(2,2,2-trifluoro-1-(4-fluorophenyl)ethyl)thiophene-2-sulfonamide]: the IC50 is 1320 nM. The figure for `CCN([C@@H](c1ccc(F)cc1)C(F)(F)F)S(=O)(=O)c1cnc(C#N)s1` [Example 83, (S)-2-Cyano-N-ethyl-N-(2,2,2-trifluoro-1-(4-fluorophenyl)ethyl)thiazole-5-sulfonamide] is 3800 nM.

As for `CCN(C(c1ccc(F)cc1)C(F)(F)F)S(=O)(=O)c1ncc(C#N)s1` (stereo not shown) [Example 80, 5-Cyano-N-ethyl-N-(2,2,2-trifluoro-1-(4-fluorophenyl)ethyl)thiazole-2-sulfonamide], the IC50 was 447 nM. For the compound `CCN([C@H](c1ccc(F)cc1)C(F)(F)F)S(=O)(=O)c1ccc2[nH]ncc2n1` [Example 188, (R)—N-ethyl-N-(2,2,2-trifluoro-1-(4-fluorophenyl)ethyl)-1H-pyrazolo[4,3-b]pyridine-5-sulfonamide], the IC50 is 309 nM.

Turning to `CN([C@@H](c1ccc(F)cc1)C(F)(F)F)S(=O)(=O)c1cncc(C#N)c1` [Example 273, (S)-5-Cyano-N-methyl-N-(2,2,2-trifluoro-1-(4-fluorophenyl)ethyl)pyridine-3-sulfonamide], the IC50 is 1480 nM. The figure for `CCN([C@H](c1ccc(F)cc1)C(F)(F)F)S(=O)(=O)c1ccc2nc[nH]c2c1` [Example 185, (R)—N-ethyl-N-(2,2,2-trifluoro-1-(4-fluorophenyl)ethyl)-1H-benzo[d]imidazole-6-sulfonamide] is 155 nM; for `CN([C@H](c1ccc(C(F)(F)F)cc1)C(F)(F)F)S(=O)(=O)c1cnc2ccccn12` [Example 235, (R)—N-methyl-N-(2,2,2-trifluoro-1-(4-(trifluoromethyl)phenyl)ethyl)imidazo[1,2-a]pyridine-3-sulfonamide] it is 31.6 nM. The value for `CCN([C@H](c1ccc(F)cc1)C(F)(F)F)S(=O)(=O)c1cnccn1` [Example 265, (R)—N-ethyl-N-(2,2,2-trifluoro-1-(4-fluorophenyl)ethyl)pyrazine-2-sulfonamide] was 39.8 nM; that for `CCN([C@H](c1ccc(F)cc1)C(F)(F)F)S(=O)(=O)c1nn(CC)c2ncccc12` [Example 190, (R)—N,1-diethyl-N-(2,2,2-trifluoro-1-(4-fluorophenyl)ethyl)-1H-pyrazolo[3,4-b]pyridine-3-sulfonamide] was 1000 nM; that for `CCN([C@H](c1ccc(F)cc1)C(F)(F)F)S(=O)(=O)c1n[nH]c2cccnc12` [Example 174, (R)—N-ethyl-N-(2,2,2-trifluoro-1-(4-fluorophenyl)ethyl)-1H-pyrazolo[4,3-b]pyridine-3-sulfonamide] was 18600 nM. The figure for `CCN(C(c1ccc(F)cc1)C(F)(F)F)S(=O)(=O)c1cnc(C(N)=O)s1` (stereo not shown) [Example 46, 5-(N-ethyl-N-(2,2,2-trifluoro-1-(4-fluorophenyl)ethyl)sulfamoyl)thiazole-2-carboxamide] is 468 nM; for `N#Cc1cncc(S(=O)(=O)N(CCF)[C@@H](c2ccc(F)cc2)C(F)(F)F)c1` [Example 65, (S)-5-Cyano-N-(2-fluoroethyl)-N-(2,2,2-trifluoro-1-(4-fluorophenyl)ethyl)pyridine-3-sulfonamide] it is 3800 nM; for `CCN([C@H](c1ccc(F)cc1)C(F)(F)F)S(=O)(=O)c1cc2cc[nH]c2cn1` [Example 181, (R)—N-ethyl-N-(2,2,2-trifluoro-1-(4-fluorophenyl)ethyl)-1H-pyrrolo[2,3-c]pyridine-5-sulfonamide] it is 537 nM. As for `CCN([C@H](c1ccc(F)cc1)C(F)(F)F)S(=O)(=O)c1ccc2[nH]nnc2c1` [Example 189, (R)—N-ethyl-N-(2,2,2-trifluoro-1-(4-fluorophenyl)ethyl)-1H-benzo[d][1,2,3]triazole-5-sulfonamide], the IC50 was 166 nM. The figure for `CCN(C(c1ccc(F)cc1)C(F)(F)F)S(=O)(=O)c1cnc(C#N)s1` (stereo not shown) [Example 82, 2-Cyano-N-ethyl-N-(2,2,2-trifluoro-1-(4-fluorophenyl)ethyl)thiazole-5-sulfonamide] is 912 nM. The value for `COc1ccc([C@@H](N(C)S(=O)(=O)c2ccc3nccn3c2)C(F)(F)F)cc1` [Example 203, (R)—N-methyl-N-(2,2,2-trifluoro-1-(4-methoxyphenyl)ethyl)imidazo[1,2-a]pyridine-6-sulfonamide] was 794 nM; that for `CN([C@H](c1ccc(F)cc1)C(F)(F)F)S(=O)(=O)c1ccc2nnc(C(F)(F)F)n2n1` [Example 170, (R)—N-methyl-N-(2,2,2-trifluoro-1-(4-fluorophenyl)ethyl)-3-(trifluoromethyl)-[1,2,4]triazolo[4,3-b]pyridazine-6-sulfonamide] was 13200 nM; that for `CCN(C(c1ccc(F)cc1)C(F)(F)F)S(=O)(=O)c1ccc(=O)n(C)c1` (stereo not shown) [Example 100, N-ethyl-1-methyl-6-oxo-N-(2,2,2-trifluoro-1-(4-fluorophenyl)ethyl)-1,6-dihydropyridine-3-sulfonamide] was 380 nM.

Consider `CCN(C(c1ccc(F)cc1)C(F)(F)F)S(=O)(=O)c1cncc(C(N)=O)c1` (stereo in doubt) [Example 53, (R)-5-(N-ethyl-N-(2,2,2-trifluoro-1-(4-fluorophenyl)ethyl)sulfamoyl)nicotinamide], for which the IC50 is 1780 nM. The figure for `CCN([C@@H](c1ccc(OC)cc1)C(F)(F)F)S(=O)(=O)C1CCOCC1` [Example 126, (S)—N-ethyl-N-(2,2,2-trifluoro-1-(4-methoxyphenyl)ethyl)tetrahydro-2H-pyran-4-sulfonamide] is 30200 nM; for `CCN([C@H](c1ccc(F)cc1)C(F)(F)F)S(=O)(=O)c1cnc2c(C#N)cnn2c1` [Example 141, (R)-3-cyano-N-ethyl-N-(2,2,2-trifluoro-1-(4-fluorophenyl)ethyl)pyrazolo[1,5-a]pyrimidine-6-sulfonamide] it is 575 nM; for `[2H]C([2H])([2H])N([C@H](c1ccc(Cl)cc1)C(F)(F)F)S(=O)(=O)c1cncc(C#N)c1` [Example 227, (R)—N-(1-(4-chlorophenyl)-2,2,2-trifluoroethyl)-5-cyano-N-(methyl-d3)pyridine-3-sulfonamide] it is 28.2 nM.

Regarding `CCN([C@H](c1ccc(OC)cc1)C(F)(F)F)S(=O)(=O)c1cncc(F)c1` [Example 257, (R)—N-ethyl-5-fluoro-N-(2,2,2-trifluoro-1-(4-methoxyphenyl)ethyl)pyridine-3-sulfonamide], the IC50 was 22.9 nM. As for `CN(C(c1ccc(C(F)(F)F)cc1)C(F)(F)F)S(=O)(=O)c1cncc(C#N)c1` (stereo not shown) [Example 67, 5-Cyano-N-methyl-N-(2,2,2-trifluoro-1-(4-(trifluoromethyl)phenyl)ethyl)pyridine-3-sulfonamide], the IC50 is 107 nM. The figure for `CCN(C(c1ccc(F)cc1)C(F)(F)F)S(=O)(=O)c1cnnc(OC)c1` (stereo not shown) [Example 121, N-ethyl-6-methoxy-N-(2,2,2-trifluoro-1-(4-fluorophenyl)ethyl)pyridazine-4-sulfonamide] is 191 nM. The figure for `CCN(C(c1ccc(F)cc1)C(F)(F)F)S(=O)(=O)c1cncc(C(N)=O)c1` (stereo not shown) [Example 51, 5-(N-ethyl-N-(2,2,2-trifluoro-1-(4-fluorophenyl)ethyl)sulfamoyl)nicotinamide] is 372 nM. The figure for `CCN([C@H](c1ccc(F)cc1)C(F)(F)F)S(=O)(=O)c1ccn2nncc2c1` [Example 145, (R)—N-ethyl-N-(2,2,2-trifluoro-1-(4-fluorophenyl)ethyl)-[1,2,3]triazolo[1,5-a]pyridine-5-sulfonamide] is 25.1 nM; for `Cc1cc([C@@H](N(C)S(=O)(=O)c2cncc(C#N)c2)C(F)(F)F)ccc1C(F)(F)F` [Example 269, (R)-5-cyano-N-methyl-N-(2,2,2-trifluoro-1-(3-methyl-4-(trifluoromethyl)phenyl)ethyl)pyridine-3-sulfonamide] it is 302 nM; for `CCN([C@H](c1ccc(F)cc1)C(F)(F)F)S(=O)(=O)c1ccc2nc(C)c(Cl)n2n1` [Example 157, (R)-3-chloro-N-ethyl-2-methyl-N-(2,2,2-trifluoro-1-(4-fluorophenyl)ethyl)imidazo[1,2-b]pyridazine-6-sulfonamide] it is 3020 nM. With `CCN([C@H](c1ccc(F)cc1)C(F)(F)F)S(=O)(=O)c1cnc2nsnc2c1` [Example 147, (R)—N-ethyl-N-(2,2,2-trifluoro-1-(4-fluorophenyl)ethyl)-[1,2,5]thiadiazolo[3,4-b]pyridine-6-sulfonamide], the IC50 is 158 nM. As to `CCN([C@H](c1ccc(F)cc1)C(F)(F)F)S(=O)(=O)c1nn(CC)c2cccnc12` [Example 173, (R)—N,1-diethyl-N-(2,2,2-trifluoro-1-(4-fluorophenyl)ethyl)-1H-pyrazolo[4,3-b]pyridine-3-sulfonamide], the IC50 was 11200 nM.

On to `CCN([C@H](c1ccc(F)cc1)C(F)(F)F)S(=O)(=O)c1nc2ccccn2c1Cl` [Example 143, (R)-3-chloro-N-ethyl-N-(2,2,2-trifluoro-1-(4-fluorophenyl)ethyl)imidazo[1,2-a]pyridine-2-sulfonamide], for which the IC50 is 4170 nM. The figure for `CN([C@H](c1ccc(Cl)cc1)C(F)(F)F)S(=O)(=O)c1ccn2nncc2c1` [Example 202, (R)—N-(1-(4-chlorophenyl)-2,2,2-trifluoroethyl)-N-methyl-[1,2,3]triazolo[1,5-a]pyridine-5-sulfonamide] is 288 nM; for `CCN([C@H](c1ccc(F)cc1)C(F)(F)F)S(=O)(=O)c1cccc2[nH]ncc12` [Example 182, (R)—N-ethyl-N-(2,2,2-trifluoro-1-(4-fluorophenyl)ethyl)-1H-indazole-4-sulfonamide] it is 288 nM.
